# Data from ChEMBL document CHEMBL1125482, “Pharmacokinetics of catechol cephalosporins. The effect of incorporating substituents into the catechol moiety on pharmacokinetics in a marmoset model” (J Med Chem, 1992).
# How the values were obtained:
# [1] = system: Pseudomonas aeruginosa; experiment: microbe, parasite or virus in culture
# Description: Compound was tested for antimicrobial activity against Pseudomonas aeruginosa constitutive derepressed type I beta-lactamase producer (18SH) strain
# [2] = physchem
# Description: Dissociation constant (pKa)
# [3] = system: Pseudomonas aeruginosa; experiment: microbe, parasite or virus in culture; remark: listed apart in the source
# Description: Compound was tested for antimicrobial activity against Pseudomonas aeruginosa PU21 strain
# [4] = organism: Canis familiaris; conditions: dog, in vivo, iv
# [5] = in vivo; conditions: callithrix, serum, iv
# Description: Serum T1/2 in marmosets (IV dose)
# [6] = Urinary recovery in marmosets (IV dose); format: ADME, organism-based; conditions: callithrix, urine, read-out: Recovery
# [7] = organism: Homo sapiens; experiment: Compound was tested for serum protein binding in human blood; format: functional
# [8] = system: Enterobacter cloacae; experiment: microbe, parasite or virus in culture
# Description: Compound was tested for antimicrobial activity against Enterobacter cloacae inducible type I beta-lactamase producer (P99-) strain
# [9] = system: Escherichia coli; experiment: microbe, parasite or virus in culture
# Description: Compound was tested for antimicrobial activity against Escherichia coli DC0 strain (parent organism)
# [10] = system: Staphylococcus aureus; experiment: microbe, parasite or virus in culture
# Description: Compound was tested for antimicrobial activity against Staphylococcus aureus penicillin sensitive Staphylococcus aureus (147N) strain
# [11] = system: Enterobacter cloacae; experiment: microbe, parasite or virus in culture; remark: listed apart in the source
# Description: Compound was tested for antimicrobial activity against Enterobacter cloacae constitutive derepressed type I beta-lactamase producer (P99+) strain
# [12] = system: Staphylococcus aureus; experiment: microbe, parasite or virus in culture; remark: listed apart in the source
# Description: Compound was tested for antimicrobial activity against Staphylococcus aureus Oxford strain
# [13] = system: Escherichia coli; experiment: microbe, parasite or virus in culture; remark: listed apart in the source
# Description: Compound was tested for antimicrobial activity against Escherichia coli DC2 strain (permeability mutant)
# [14] = system: Mus musculus; experiment: Compound was evaluated in vivo for antibacterial activity against Pseudomonas aeruginosa (strain 101010) in mice; format: functional; conditions: read-out: PD50
SMILES,pKa [2],AUC [4],half-life [5],also measured
CO/N=C(\C(=O)N[C@@H]1C(=O)N2C(C(=O)O)=C(COC(C)=O)CS[C@H]12)c1csc(N)n1 [CEFOTAXIME],–,46.7 mg/h/L,0.5 h,–
CCn1cc(C(=O)NCC2=C(C(=O)O)N3C(=O)[C@@H](NC(=O)/C(=N\OC(C)(C)C(=O)O)c4csc(N)n4)[C@H]3SC2)c(=O)c2cc(O)c(O)nc21,5.6,137.3 mg/h/L,2.8 h,–
CCn1nc(C(=O)NCC2=C(C(=O)O)N3C(=O)[C@@H](NC(=O)/C(=N\OC(C)(C)C(=O)O)c4csc(N)n4)[C@H]3SC2)c(=O)c2cc(O)c(O)cc21,6.5,129.8 mg/h/L,2.2 h,dose excreted [6]: 26.9%; Activity [7]: 97.8%
CCO/N=C(\C(=O)N[C@@H]1C(=O)N2C(C(=O)O)=C(CNC(=O)c3ccc(O)c(O)c3)CS[C@H]12)c1csc(N)n1,8.5,4.3 mg/h/L,0.8 h,MIC [8]: 0.5 µg/mL; MIC [1]: 64 µg/mL; MIC [3]: 0.25 µg/mL; MIC [9]: 0.06 µg/mL; MIC [10]: 4 µg/mL; MIC [11]: 64 µg/mL; MIC [12]: 2 µg/mL; MIC [13]: 0.08 µg/mL
CCO/N=C(\C(=O)N[C@@H]1C(=O)N2C(C(=O)O)=C(CNC(=O)c3cc(O)c(O)c(Br)c3)CS[C@H]12)c1csc(N)n1,6.9,17 mg/h/L,0.7 h,MIC [8]: 0.015 µg/mL; MIC [1]: 4 µg/mL; MIC [3]: 0.06 µg/mL; MIC [9]: < 0.008 µg/mL; MIC [10]: 4 µg/mL; MIC [11]: 8 µg/mL; MIC [12]: 2 µg/mL
CC(C)(O/N=C(\C(=O)N[C@@H]1C(=O)N2C(C(=O)O)=C(CNC(=O)c3cc(O)c(O)c(C#N)c3)CS[C@H]12)c1csc(N)n1)C(=O)O,5.5,394.5 mg/h/L,5.3 h,dose excreted [6]: 8.7%; ED50 [14]: 13 µg/kg; Activity [7]: 96.7%
CCOC(=O)c1nc2cc(O)c(O)cc2nc1C(=O)NCC1=C(C(=O)O)N2C(=O)[C@@H](NC(=O)/C(=N\OC(C)(C)C(=O)O)c3csc(N)n3)[C@H]2SC1,6,287 mg/h/L,4.6 h,–
CC(C)(O/N=C(\C(=O)N[C@@H]1C(=O)N2C(C(=O)O)=C(CNC(=O)c3cc(O)c(O)c(Cl)c3)CS[C@H]12)c1csc(N)n1)C(=O)O,7,638.3 mg/h/L,4.6 h,ED50 [14]: 4 µg/kg
CC(C)(O/N=C(\C(=O)N[C@@H]1C(=O)N2C(C(=O)O)=C(CNC(=O)/C=C/c3cc(O)c(O)cc3Br)CS[C@H]12)c1csc(N)n1)C(=O)O,–,24.2 mg/h/L,1 h,–
CC(C)(O/N=C(\C(=O)N[C@@H]1C(=O)N2C(C(=O)O)=C(CNC(=O)c3cc(O)c(O)c(Br)c3)CS[C@H]12)c1csc(N)n1)C(=O)O,6.9,137.1 mg/h/L,2.9 h,MIC [8]: 0.03 µg/mL; MIC [1]: 0.015 µg/mL; MIC [3]: < 0.008 µg/mL; dose excreted [6]: 13.9%; MIC [10]: 16 µg/mL; MIC [11]: 2 µg/mL; MIC [12]: 16 µg/mL; ED50 [14]: 24 µg/kg; Activity [7]: 99.2%
CC(C)(O/N=C(\C(=O)N[C@@H]1C(=O)N2C(C(=O)O)=C(CNC(=O)c3cc(Cl)c(O)c(O)c3Cl)CS[C@H]12)c1csc(N)n1)C(=O)O,6.3,461 mg/h/L,8.2 h,dose excreted [6]: 16.2%; ED50 [14]: 3 µg/kg; Activity [7]: 98.7%
CC(C)(O/N=C(\C(=O)N[C@@H]1C(=O)N2C(C(=O)O)=C(CNC(=O)c3cc4ccc(O)c(O)c4oc3=O)CS[C@H]12)c1csc(N)n1)C(=O)O,–,243.9 mg/h/L,3.95 h,dose excreted [6]: 6.9%; Activity [7]: 99.6%
CCn1cc(C(=O)NCC2=C(C(=O)O)N3C(=O)[C@@H](NC(=O)/C(=N\OC(C)(C)C(=O)O)c4csc(N)n4)[C@H]3SC2)c(=O)c2c(Cl)c(O)c(O)cc21,7,645.7 mg/h/L,5.7 h,–
CC(C)(O/N=C(\C(=O)N[C@@H]1C(=O)N2C(C(=O)O)=C(/C=C/c3cc(O)c(O)c(Br)c3)CS[C@H]12)c1csc(N)n1)C(=O)O,7.7,61.6 mg/h/L,1.5 h,–
CCN(CC1=C(C(=O)O)N2C(=O)[C@@H](NC(=O)/C(=N\OC(C)(C)C(=O)O)c3csc(N)n3)[C@H]2SC1)C(=O)c1cc(O)c(O)cc1F,8.25,7.6 mg/h/L,0.6 h,–
CCN(CC1=C(C(=O)O)N2C(=O)[C@@H](NC(=O)/C(=N\OC(C)(C)C(=O)O)c3csc(N)n3)[C@H]2SC1)C(=O)c1cc(O)c(O)c(Br)c1,7.3,21.8 mg/h/L,1 h,MIC [8]: 0.25 µg/mL; MIC [1]: 0.06 µg/mL; MIC [3]: 0.03 µg/mL; MIC [9]: 0.015 µg/mL; MIC [10]: 32 µg/mL; MIC [11]: 1 µg/mL; MIC [12]: 32 µg/mL; MIC [13]: 0.015 µg/mL
CC(C)(O/N=C(\C(=O)N[C@@H]1C(=O)N2C(C(=O)O)=C(COC(=O)c3cc(O)c(O)c(Br)c3)CS[C@H]12)c1csc(N)n1)C(=O)O,6.5,67.7 mg/h/L,1.7 h,–

# The next lines start with results.
pKa [2],AUC [4],half-life [5],SMILES,also measured
8.35,51.9 mg/h/L,0.9 h,CC(C)(O/N=C(\C(=O)N[C@@H]1C(=O)N2C(C(=O)O)=C(CNC(=O)c3cc(O)c(O)c(O)c3)CS[C@H]12)c1csc(N)n1)C(=O)O,MIC [1]: 8.1 µg/mL; MIC [3]: 0.9 µg/mL
–,122.3 mg/h/L,2.8 h,CC(C)(O/N=C(\C(=O)N[C@@H]1C(=O)N2C(C(=O)O)=C(CNC(=O)Nc3cc(O)c(O)c(Br)c3)CS[C@H]12)c1csc(N)n1)C(=O)O,–
7.65,131 mg/h/L,2.9 h,CC(C)(O/N=C(\C(=O)N[C@@H]1C(=O)N2C(C(=O)O)=C(CNC(=O)c3ccc(O)c(O)c3Cl)CS[C@H]12)c1csc(N)n1)C(=O)O,–
7.45,116.8 mg/h/L,3.5 h,CC(C)(O/N=C(\C(=O)N[C@@H]1C(=O)N2C(C(=O)O)=C(CNC(=O)c3cc(O)c(O)c(F)c3)CS[C@H]12)c1csc(N)n1)C(=O)O,–
5.5,181.7 mg/h/L,2.9 h,CC(C)(O/N=C(\C(=O)N[C@@H]1C(=O)N2C(C(=O)O)=C(CNC(=O)c3cc(O)c(O)c([N+](=O)[O-])c3)CS[C@H]12)c1csc(N)n1)C(=O)O,dose excreted [6]: 47.3%; Activity [7]: 97.5%
6.9,54.5 mg/h/L,1.4 h,CCO/N=C(\C(=O)N[C@@H]1C(=O)N2C(C(=O)O)=C(CNC(=O)c3cc(Cl)c(O)c(O)c3Cl)CS[C@H]12)c1csc(N)n1,–
7.4,25 mg/h/L,0.65 h,CCO/N=C(\C(=O)N[C@@H]1C(=O)N2C(C(=O)O)=C(CNC(=O)c3cc(O)c(O)c(F)c3)CS[C@H]12)c1csc(N)n1,–
7.4,16.4 mg/h/L,0.9 h,CCN(CC1=C(C(=O)O)N2C(=O)[C@@H](NC(=O)/C(=N\OC(C)(C)C(=O)O)c3csc(N)n3)[C@H]2SC1)C(=O)c1cc(O)c(O)c(Cl)c1,–
5.5,48.9 mg/h/L,0.8 h,CCO/N=C(\C(=O)N[C@@H]1C(=O)N2C(C(=O)O)=C(CNC(=O)c3cc(O)c(O)c([N+](=O)[O-])c3)CS[C@H]12)c1csc(N)n1,–
6.9,2 mg/h/L,0.35 h,CCO/N=C(\C(=O)N[C@@H]1C(=O)N2C(C(=O)O)=C(CNC(=O)c3cc(O)c(O)cc3Br)CS[C@H]12)c1csc(N)n1,–
8.1,13.4 mg/h/L,0.9 h,CC(C)(O/N=C(\C(=O)N[C@@H]1C(=O)N2C(C(=O)O)=C(CNC(=O)c3cc(O)c(O)cc3Br)CS[C@H]12)c1csc(N)n1)C(=O)O,–
7.8,78 mg/h/L,1.6 h,CC(C)(O/N=C(\C(=O)N[C@@H]1C(=O)N2C(C(=O)O)=C(CNC(=O)c3cc(O)c(O)cc3F)CS[C@H]12)c1csc(N)n1)C(=O)O,–
–,4.4 mg/h/L,0.7 h,CC(C)(O/N=C(\C(=O)N[C@@H]1C(=O)N2C(C(=O)O)=C(CNCc3cc(O)c(O)c(Br)c3)CS[C@H]12)c1csc(N)n1)C(=O)O,–
–,1.6 mg/h/L,–,CC(C)(O/N=C(\C(=O)N[C@@H]1C(=O)N2C(C(=O)O)=C(CNC(=O)Cc3cc(O)c(O)cc3Br)CS[C@H]12)c1csc(N)n1)C(=O)O,–
7.85,10.9 mg/h/L,0.5 h,CCN(CC1=C(C(=O)O)N2C(=O)[C@@H](NC(=O)/C(=N\OC(C)(C)C(=O)O)c3csc(N)n3)[C@H]2SC1)C(=O)c1cc(O)c(O)c(F)c1,–
5.8,49.2 mg/h/L,1.6 h,CCN(CC1=C(C(=O)O)N2C(=O)[C@@H](NC(=O)/C(=N\OC(C)(C)C(=O)O)c3csc(N)n3)[C@H]2SC1)C(=O)c1cc(O)c(O)c([N+](=O)[O-])c1,–
5.8,41 mg/h/L,1 h,CCN(CC1=C(C(=O)O)N2C(=O)[C@@H](NC(=O)/C(=N\OC(C)(C)C(=O)O)c3csc(N)n3)[C@H]2SC1)C(=O)c1cc(O)c(O)c(C#N)c1,–
5.5,107 mg/h/L,1.2 h,CCO/N=C(\C(=O)N[C@@H]1C(=O)N2C(C(=O)O)=C(CNC(=O)c3cc(O)c(O)c(C#N)c3)CS[C@H]12)c1csc(N)n1,–
6.9,57.6 mg/h/L,1.3 h,CCO/N=C(\C(=O)N[C@@H]1C(=O)N2C(C(=O)O)=C(CNC(=O)c3cc(O)c(O)c(Cl)c3)CS[C@H]12)c1csc(N)n1,–
